# Laboratory results reported in patent publication US20240209028A1, “CNP COMPOUNDS” (priority 2022, published 2024).
# Starred links: 1 amine or outer side, 2 acyl side, 3 side chain; linkers in the order of their positions; H or OH if unused. Positions of bridges follow the written chain, without caps; N, C: chain ends. Residues, ends and D or L forms follow the SMILES beside them. *: point of attachment. C18 diacid = O=C(O)CCCCCCCCCCCCCCCCC(=O)*; γGlu = O=C(O)[C@H](CCC(=O)[*:2])N[*:1]; AEEA = NCCOCCOCC(=O)O
# Assay: Thioflavin T (ThT) assay: lagtime and peptide recovery
# Format: physicochemical
# Conditions: ThT assay, pH 6.5, 37° C.; assay terminated after 45 hours
# Excerpt: The ThT assay was used to evaluate physical stability of the CNP compounds and their suitability for liquid formulation. Low physical stability of peptides may lead to amyloid fibril formation, which is observed as well-ordered, thread-like macromolecular structures in the sample eventually resulting in gel formation. This has traditionally been tested by visual inspection of the sample. However, that kind of measurement is very subjective and depending on the observer. Therefore, the application of a small molecule indicator probe is much more advantageous. Thioflavin T (ThT) is such a probe and has a distinct fluorescence signature when binding to fibrils [Naiki et al. (1989) Anal. Biochem. 177, 244-249; LeVine (1999) Methods. Enzymol. […], 274-284].
# Procedure: Thioflavin T was added to the supernatant samples from Example 5 (pH 4.0 and 6.5) using an aqueous ThT stock solution to a final concentration of about 1 μM in the samples. Sample aliquots of 150 μL were placed in a 96 well microtiter plate (Packard OptiPlate™-96, white polystyrene). Usually, two to three replicas of each sample were applied to the plate. The plate was sealed and placed in a fluorescence plate reader (Fluoroskan Ascent FL) and incubated at 37° C. with orbital shaking (960 rpm; 1 mm amplitude). Fluorescence measurements were performed every 20 minutes using excitation through a 444 nm filter and measurement of emission through a 485 nm filter. Between each measurement, the plate was shaken and heated as described above and the assay was terminated after 45 hours. Fluorescence measurements for each microtiter plate well were plotted against time and the lag-time (time until an increase in ThT fluorescence was observed) was estimated.
# To assess loss of dissolved peptide following 45h incubation, peptide recovery was measured as the ratio between total peak area after incubation vs. before incubation using the RP-UPLC method described below.
# Measurement of LagTime and Peptide recovery % using RP-UPLC: RP-UPLC was conducted using an Acquity UPLC BEH C18 1.7 μm (2.1×30 mm) Waters column (Eluent A: 0.1% v/v % TFA in water; Eluent B: 0.1% v/v TFA in acetonitrile/water 4:1) with gradient elution (0 min: 95% A; 2 min: 20% A; 2.3 min: 20% A; 2.4 min: 95% A; 9 min: 95% A) in a flow rate of 0.9 mL/min and a column temperature of 30° C. UV-detection at 215 nm was used to assess the total peptide area.
# Samples at pH 4.0 were prepared as described in Example 5 and subjected to the ThT assay as described above.
# Samples at pH 6.5 were prepared as described in Example 5 and subjected to the ThT assay as described above.
row,Structure (SMILES),LagTime (h) at pH 6.5
1,CC[C@H](C)[C@@H]1NC(=O)[C@H](CCCNC(=N)N)NC(=O)[C@H](CC(=O)O)NC(=O)[C@H](CC(C)C)NC(=O)[C@@H]2CCCN2C(=O)[C@H](CC(C)C)NC(=O)CNC(=O)[C@H](Cc2ccccc2)NC(=O)[C@@H](NC(=O)CNC(=O)[C@H](CO)NC(=O)[C@H](CO)NC(=O)[C@@H](NC(=O)CNC(=O)[C@@H](NC(=O)[C@H](CCCCN)NC(=O)[C@H](CCC(N)=O)NC(=O)[C@H](C)NC(=O)CNC(=O)[C@H](Cc2c[nH]cn2)NC(=O)[C@H](Cc2ccc(O)cc2)NC(=O)COCCOCCNC(=O)COCCOCCNC(=O)CC[C@H](NC(=O)CCCCCCCCCCCCCCCCC(=O)O)C(=O)O)[C@@H](C)O)C(C)C)CSSC[C@@H](C(=O)O)NC(=O)CNC(=O)[C@H](CC(C)C)NC(=O)CNC(=O)[C@H](CO)NC(=O)[C@H](CC(C)C)NC(=O)[C@H](CO)NC(=O)CNC1=O [compound 1303] ({C18 diacid-γGlu-AEEA-AEEA}-YHGAQKTGVSSGCFGLPLDRIGSLSGLGC-OH; disulfide 13-29),5 h
2,CC[C@H](C)[C@@H]1NC(=O)[C@H](CCCNC(=N)N)NC(=O)[C@H](CC(=O)O)NC(=O)[C@H](CC(C)C)NC(=O)[C@@H]2CCCN2C(=O)[C@H](CC(C)C)NC(=O)CNC(=O)[C@H](Cc2ccccc2)NC(=O)[C@@H](NC(=O)CNC(=O)[C@H](CO)NC(=O)[C@H](CO)NC(=O)[C@H](CC(C)C)NC(=O)CNC(=O)[C@@H](NC(=O)[C@H](Cc2c[nH]cn2)NC(=O)[C@H](CCC(N)=O)NC(=O)[C@H](C)NC(=O)CNC(=O)[C@H](Cc2c[nH]cn2)NC(=O)[C@H](Cc2ccc(O)cc2)NC(=O)COCCOCCNC(=O)COCCOCCNC(=O)CC[C@H](NC(=O)CCCCCCCCCCCCCCCCC(=O)O)C(=O)O)[C@@H](C)O)CSSC[C@@H](C(=O)O)NC(=O)CNC(=O)[C@H](CC(C)C)NC(=O)CNC(=O)[C@H](CO)NC(=O)[C@H](CC(C)C)NC(=O)[C@H](CO)NC(=O)CNC1=O [compound 1304] ({C18 diacid-γGlu-AEEA-AEEA}-YHGAQHTGLSSGCFGLPLDRIGSLSGLGC-OH; disulfide 13-29),45 h
3,CC[C@H](C)[C@@H]1NC(=O)[C@H](CCCNC(=N)N)NC(=O)[C@H](CC(=O)O)NC(=O)[C@H](CC(C)C)NC(=O)[C@@H]2CCCN2C(=O)[C@H](CC(C)C)NC(=O)CNC(=O)[C@H](Cc2ccccc2)NC(=O)[C@@H](NC(=O)CNC(=O)[C@H](CO)NC(=O)[C@H](CO)NC(=O)[C@H](CC(C)C)NC(=O)CNC(=O)[C@H](CCCCN)NC(=O)[C@H](CCCCN)NC(=O)[C@H](CCC(N)=O)NC(=O)[C@H](C)NC(=O)CNC(=O)[C@H](Cc2c[nH]cn2)NC(=O)[C@H](CCC(=O)O)NC(=O)COCCOCCNC(=O)COCCOCCNC(=O)CC[C@H](NC(=O)CCCCCCCCCCCCCCCCC(=O)O)C(=O)O)CSSC[C@@H](C(=O)O)NC(=O)CNC(=O)[C@H](CC(C)C)NC(=O)CNC(=O)[C@H](CO)NC(=O)[C@H](CC(C)C)NC(=O)[C@H](CO)NC(=O)CNC1=O [compound 1310] ({C18 diacid-γGlu-AEEA-AEEA}-EHGAQKKGLSSGCFGLPLDRIGSLSGLGC-OH; disulfide 13-29),45 h
